{
  "source": "ChEMBL document CHEMBL1201862",
  "about": "“PubChem BioAssay data set” (2004)",
  "key": {"Coagulation factor XII": {"biological_target": "T1, Coagulation factor XII (Homo sapiens, UniProt P00748)", "T1 sequence (P00748 whole entry)": "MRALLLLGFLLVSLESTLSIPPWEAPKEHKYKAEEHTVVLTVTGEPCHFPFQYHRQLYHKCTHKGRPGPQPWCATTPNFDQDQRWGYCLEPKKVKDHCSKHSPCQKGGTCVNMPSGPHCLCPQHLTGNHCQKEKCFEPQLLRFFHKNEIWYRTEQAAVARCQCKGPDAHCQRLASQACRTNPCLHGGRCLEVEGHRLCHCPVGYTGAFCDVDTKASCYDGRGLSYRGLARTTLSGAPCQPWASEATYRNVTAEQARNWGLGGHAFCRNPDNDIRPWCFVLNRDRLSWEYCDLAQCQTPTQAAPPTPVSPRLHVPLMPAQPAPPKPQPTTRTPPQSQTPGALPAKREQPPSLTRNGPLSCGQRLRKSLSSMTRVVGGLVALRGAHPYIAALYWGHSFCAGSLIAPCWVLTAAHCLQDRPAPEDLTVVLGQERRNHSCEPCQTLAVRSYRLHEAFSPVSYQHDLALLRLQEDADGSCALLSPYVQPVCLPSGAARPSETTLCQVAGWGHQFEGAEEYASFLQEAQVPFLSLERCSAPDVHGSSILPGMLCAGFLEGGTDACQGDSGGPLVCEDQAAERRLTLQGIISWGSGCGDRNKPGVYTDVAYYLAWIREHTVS", "type": "functional"}, "BJ [1]": {"system": "BJ", "assay": "BJ-TERT-LT-ST fibroblast viability loss – cell-based, RAS-independent, luminescence, dose response (AID 1935);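 further: BJ fibroblasts immortalized with TERT plus LT and ST oncogenes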", "type": "functional", "details": "Homo sapiens"}, "BJ [2]": {"system": "BJ", "assay": "BJ-TERT fibroblast viability loss – cell-based, RAS-independent, luminescence, dose response (AID 1933)", "type": "functional", "details": "Homo sapiens"}, "BJ [3]": {"system": "BJ", "assay": "cells", "type": "functional, cell-based", "details": "Homo sapiens"}, "[4]": {"assay": "HEK-293T viability loss after treatment – luminescence, T-cell screen hits, cytotoxicity control for TCR NF-kB inhibitor project, dose response (AID 489026);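 further: cells exposed to compound about 14 hours before the viability readout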", "type": "functional, cell-based"}, "[5]": {"assay": "DRD fibroblast viability loss – cell-based, non-viral oncogenic, luminescence, dose response (AID 1934)", "type": "functional", "details": "Homo sapiens"}, "Streptococcus": {"system": "Streptococcus", "assay": "GAS UMAA2166 growth inhibition – luminescence, BacTiterGlo, counter-screen for streptokinase expression inhibitor project, dose response (AID 1915);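 further: potency for reduction of bacterial viability or growth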", "type": "functional, organism-based"}, "Streptokinase A": {"biological_target": "T2, Streptokinase A (Streptococcus pyogenes serotype M1, UniProt P10520)", "T2 sequence (P10520 whole entry)": "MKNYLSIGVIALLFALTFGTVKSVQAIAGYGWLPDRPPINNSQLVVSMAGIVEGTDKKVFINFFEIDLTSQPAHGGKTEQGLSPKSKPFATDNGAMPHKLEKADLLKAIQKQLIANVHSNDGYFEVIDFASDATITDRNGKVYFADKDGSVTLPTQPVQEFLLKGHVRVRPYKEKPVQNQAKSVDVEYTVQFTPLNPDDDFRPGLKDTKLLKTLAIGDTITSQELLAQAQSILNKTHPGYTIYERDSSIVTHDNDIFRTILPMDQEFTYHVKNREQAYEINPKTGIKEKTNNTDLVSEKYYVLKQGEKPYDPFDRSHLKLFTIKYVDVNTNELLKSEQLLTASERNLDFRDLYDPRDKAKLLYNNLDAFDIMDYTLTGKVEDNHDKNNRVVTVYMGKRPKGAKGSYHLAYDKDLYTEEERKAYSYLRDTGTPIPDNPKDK", "assay": "viability-normalized secreted streptokinase activity reduction – plasminogen activation absorbance, OD405, dose response (AID 1914)", "type": "functional, Streptococcus pyogenes M1 GAS"}, "[6]": {"assay": "A Cell Based Secondary Assay To Explore Cytotoxicity of Compounds that Sensitize Mycobacterium Tuberculosis to Beta-Lactam Antibiotics.", "type": "functional"}, "[7]": {"system": "Streptococcus sp. 'group A'", "assay": "Streptococcus pyogenes SK(-)GAS viability under kanamycin – luminescence, BacTiterGlo, confirmation, counter-screen for streptokinase expression inhibitor project, dose response (AID 1900)", "type": "functional, organism-based"}, "[8]": {"biological_target": "T3, Short transient receptor potential channel 4 (Mus musculus, UniProt Q9QUQ5)", "T3 sequence (Q9QUQ5 whole entry)": "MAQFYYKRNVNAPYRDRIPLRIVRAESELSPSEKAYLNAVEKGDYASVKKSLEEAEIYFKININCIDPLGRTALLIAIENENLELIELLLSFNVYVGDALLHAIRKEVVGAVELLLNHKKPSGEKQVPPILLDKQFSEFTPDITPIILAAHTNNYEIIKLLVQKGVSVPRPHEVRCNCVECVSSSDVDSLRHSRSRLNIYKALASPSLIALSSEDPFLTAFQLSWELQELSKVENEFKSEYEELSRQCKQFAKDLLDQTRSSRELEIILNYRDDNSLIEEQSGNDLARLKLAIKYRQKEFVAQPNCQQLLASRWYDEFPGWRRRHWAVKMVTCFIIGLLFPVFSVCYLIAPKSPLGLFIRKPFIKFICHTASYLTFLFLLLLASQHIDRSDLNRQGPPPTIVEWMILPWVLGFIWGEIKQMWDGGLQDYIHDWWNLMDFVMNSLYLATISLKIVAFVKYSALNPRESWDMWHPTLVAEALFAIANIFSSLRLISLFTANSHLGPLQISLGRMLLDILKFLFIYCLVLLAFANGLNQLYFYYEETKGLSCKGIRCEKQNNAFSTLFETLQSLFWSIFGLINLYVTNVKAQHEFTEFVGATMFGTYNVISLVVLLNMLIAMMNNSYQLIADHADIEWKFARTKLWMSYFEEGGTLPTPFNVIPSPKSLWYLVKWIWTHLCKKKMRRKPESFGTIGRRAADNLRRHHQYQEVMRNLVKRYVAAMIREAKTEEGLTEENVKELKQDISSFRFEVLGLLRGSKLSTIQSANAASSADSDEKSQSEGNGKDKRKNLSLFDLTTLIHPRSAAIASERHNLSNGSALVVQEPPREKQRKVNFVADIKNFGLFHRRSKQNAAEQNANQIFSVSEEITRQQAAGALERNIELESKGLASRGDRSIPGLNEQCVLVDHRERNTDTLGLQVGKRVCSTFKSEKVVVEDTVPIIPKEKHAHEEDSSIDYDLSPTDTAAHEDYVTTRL", "assay": "calcium entry via TRPC4 opening agents – cell-based, HEK293 TRPC4/mu-opioid, Fluo-4 calcium, dose response (AID 434937)", "type": "functional"}, "[9]": {"biological_target": "Induced myeloid leukemia cell differentiation protein Mcl-1 (Homo sapiens, UniProt Q07820)", "sequence (Q07820 whole entry)": "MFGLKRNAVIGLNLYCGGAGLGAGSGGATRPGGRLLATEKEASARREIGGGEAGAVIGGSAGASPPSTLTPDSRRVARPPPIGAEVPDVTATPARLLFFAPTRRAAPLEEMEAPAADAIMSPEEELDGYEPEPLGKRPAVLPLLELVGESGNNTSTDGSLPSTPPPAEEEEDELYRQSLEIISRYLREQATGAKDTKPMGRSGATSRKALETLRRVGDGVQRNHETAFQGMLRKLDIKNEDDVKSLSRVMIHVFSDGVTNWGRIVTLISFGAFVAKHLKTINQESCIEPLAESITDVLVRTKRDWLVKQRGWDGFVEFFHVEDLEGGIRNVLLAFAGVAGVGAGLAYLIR", "type": "functional"}, "Cytochrome P450 2C19": {"biological_target": "Cytochrome P450 2C19 (Homo sapiens, UniProt P33261)", "sequence (P33261 whole entry)": "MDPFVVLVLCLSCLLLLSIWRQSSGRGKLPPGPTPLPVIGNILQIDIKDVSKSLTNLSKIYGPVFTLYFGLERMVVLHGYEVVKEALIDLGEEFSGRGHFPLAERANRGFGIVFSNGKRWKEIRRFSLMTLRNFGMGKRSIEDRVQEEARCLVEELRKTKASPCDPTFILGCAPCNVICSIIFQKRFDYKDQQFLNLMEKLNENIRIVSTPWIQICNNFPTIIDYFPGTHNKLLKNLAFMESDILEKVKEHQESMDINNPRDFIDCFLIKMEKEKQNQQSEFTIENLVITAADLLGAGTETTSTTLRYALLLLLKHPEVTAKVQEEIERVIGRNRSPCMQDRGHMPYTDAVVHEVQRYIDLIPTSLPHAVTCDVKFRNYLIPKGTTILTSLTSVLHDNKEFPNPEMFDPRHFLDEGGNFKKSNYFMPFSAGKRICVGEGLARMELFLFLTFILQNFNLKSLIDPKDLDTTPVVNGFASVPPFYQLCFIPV", "assay": "Cytochrome panel assay with activity outcomes. Panel member name: p450-cyp2c19 Compounds with AC50 equal or less than 10 uM are considered active", "type": "functional", "details": "read-out: AC50"}, "[10]": {"biological_target": "T4, Mannose-6-phosphate isomerase (Homo sapiens, UniProt P34949)", "T4 sequence (P34949 whole entry)": "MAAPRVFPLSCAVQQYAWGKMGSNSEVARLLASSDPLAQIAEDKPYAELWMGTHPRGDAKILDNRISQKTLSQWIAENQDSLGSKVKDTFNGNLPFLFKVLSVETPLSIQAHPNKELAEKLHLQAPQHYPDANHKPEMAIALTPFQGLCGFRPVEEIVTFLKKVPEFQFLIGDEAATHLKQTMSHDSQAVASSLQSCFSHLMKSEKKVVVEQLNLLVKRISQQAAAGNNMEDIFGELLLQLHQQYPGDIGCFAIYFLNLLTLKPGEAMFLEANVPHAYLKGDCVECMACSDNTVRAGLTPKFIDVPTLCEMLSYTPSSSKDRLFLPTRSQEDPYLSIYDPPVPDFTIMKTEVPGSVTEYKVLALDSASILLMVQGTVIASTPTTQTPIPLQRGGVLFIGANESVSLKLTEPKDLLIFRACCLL", "assay": "MPI inhibition at elevated mannose 6-phosphate – biochemical, fluorescence intensity, high mannose 6-phosphate, primary screen (AID 1220)"}, "Estrogen receptor": {"biological_target": "T5, Estrogen receptor (Homo sapiens, UniProt P03372)", "T5 sequence (P03372 whole entry)": "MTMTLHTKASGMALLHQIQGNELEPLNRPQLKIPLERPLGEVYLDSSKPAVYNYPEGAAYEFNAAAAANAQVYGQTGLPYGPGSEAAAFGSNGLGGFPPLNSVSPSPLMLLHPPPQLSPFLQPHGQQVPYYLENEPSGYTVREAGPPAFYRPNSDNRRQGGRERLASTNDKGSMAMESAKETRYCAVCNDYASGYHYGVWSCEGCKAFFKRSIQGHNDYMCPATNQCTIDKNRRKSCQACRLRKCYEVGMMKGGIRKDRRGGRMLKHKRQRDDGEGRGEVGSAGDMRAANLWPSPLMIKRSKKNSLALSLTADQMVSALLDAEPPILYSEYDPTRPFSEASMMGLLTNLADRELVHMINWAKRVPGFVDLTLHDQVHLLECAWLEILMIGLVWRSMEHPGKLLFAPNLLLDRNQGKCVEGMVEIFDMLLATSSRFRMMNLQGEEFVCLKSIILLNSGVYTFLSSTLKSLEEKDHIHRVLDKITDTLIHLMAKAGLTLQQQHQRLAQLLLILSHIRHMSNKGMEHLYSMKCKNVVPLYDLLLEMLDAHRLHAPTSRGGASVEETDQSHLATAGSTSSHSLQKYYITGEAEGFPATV"}},
  "note": "The source made the active and inactive calls.",
  "data": [
    {"smiles": "CCOc1cc(NC(=O)c2ccc(C)cc2)c(OCC)cc1N=C(S)NCCCN1CCOCC1", "values": [
      {"measurement": "IC50", "setting": "Coagulation factor XII", "result": "> 50 µM (inactive)"}
    ]},
    {"smiles": "Cc1c(Cl)cccc1Nc1nc(N)nc(CN2CCc3ccccc3C2)n1", "values": [
      {"measurement": "IC50", "setting": "Coagulation factor XII", "result": "> 50 µM (inactive)"}
    ]},
    {"smiles": "O=C(c1ccccc1-c1ccccc1)N1CCN(c2ccccn2)CC1", "values": [
      {"measurement": "EC50", "setting": "BJ [1]", "result": "13.9 µM (inconclusive)"},
      {"measurement": "EC50", "setting": "BJ [2]", "result": "9.85 µM (active)"},
      {"measurement": "EC50", "setting": "BJ [3]", "result": "19.9 µM (active)"},
      {"measurement": "IC50", "setting": "[4]", "result": "> 80 µM (inactive)"},
      {"measurement": "EC50", "setting": "[5]", "result": "11.4 µM (active)"}
    ]},
    {"smiles": "CCc1cccc2c(C(=O)COC(=O)/C=C/c3ccc(O)c(OC)c3)c[nH]c12", "values": [
      {"measurement": "EC50", "setting": "Streptococcus", "result": "41.1 µM (active)"},
      {"measurement": "EC50", "setting": "Streptokinase A", "result": "> 150 µM (not active)"},
      {"measurement": "CC50", "setting": "[6]", "result": "> 40 µM (active)"},
      {"measurement": "EC50", "setting": "[7]", "result": "8.62 µM (active)"}
    ]},
    {"smiles": "COc1ccc(C(CNC(=O)COc2ccccc2OC)N(C)C)cc1OC", "note": "(configuration not stated)", "values": [
      {"measurement": "EC50", "setting": "[8]", "result": "1.19 µM (active)"}
    ]},
    {"smiles": "CCOC(=O)C1(Cc2cccc(F)c2)CCN(Cc2cnn(CC)c2C)CC1", "values": [
      {"measurement": "EC50", "setting": "[8]", "result": "0.211 µM (active)"}
    ]},
    {"smiles": "c1ccc(CNC2=NN=C(c3cc4ccccc4o3)CS2)cc1", "values": [
      {"measurement": "IC50", "setting": "[9]", "result": "2.66 µM (not active)"}
    ]},
    {"smiles": "COc1cc(OC)cc(-c2nnc(NC(=O)CCS(=O)(=O)c3ccc(C)cc3)o2)c1", "values": [
      {"measurement": "CC50", "setting": "[6]", "result": "32.4 µM (active)"}
    ]},
    {"smiles": "CSC1=NC(c2ccc(C)cc2)=NC(C(Cl)(Cl)Cl)N1", "note": "(configuration not stated)", "values": [
      {"measurement": "IC50", "setting": "[4]", "result": "> 80 µM (inactive)"}
    ]},
    {"smiles": "COc1ccc(CCN(C)CCC(=O)Nc2c(C)cc(C)cc2C)cc1OC", "values": [
      {"measurement": "EC50", "setting": "[8]", "result": "4.73 µM (active)"}
    ]},
    {"smiles": "CCOC(=O)c1c(C)oc2c1c(/C=N/C1CCS(=O)(=O)C1)c(O)c1ccccc12", "note": "(configuration not stated)", "values": [
      {"measurement": "AC50", "setting": "Cytochrome P450 2C19", "result": "1.78 µM (inconclusive)"},
      {"measurement": "IC50", "setting": "[10]", "result": "> 50 µM (not active)"},
      {"measurement": "IC50", "setting": "Estrogen receptor", "result": "16 µM (active)"}
    ]},
    {"smiles": "Cc1ccc(-c2nnc(S)n2/N=C/C=C\\c2ccccc2[N+](=O)[O-])cc1", "values": [
      {"measurement": "IC50", "setting": "Estrogen receptor", "result": "7.32 µM (active)"}
    ]},
    {"smiles": "Cn1cc(C(=O)N/N=C/c2ccc([N+](=O)[O-])cc2)c2ccccc21", "values": [
      {"measurement": "IC50", "setting": "[9]", "result": "1.94 µM (active)"}
    ]}
  ]
}
